# Legend:
# [1] = tested on: murine bone marrow-derived macrophages; assay: area under cytotoxicity dose-response curve (AUC (% cytotoxicity x dose, relative)); higher = more cytotoxic; settings: duration: 6 days; dose range: 0.13-80 uM, 8 points
# Outline: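 Cytotoxicity is given as the area under the dose–response curve, computed in GraphPad Prism version 10. Primary murine bone marrow-derived macrophages in opaque 384-well plates received an 8-point, 2.5-fold dilution series (final 80–0.13 μM) for 6 days at 37 °C in 5% CO2. Viability was measured by Promega's CellTiter-Glo luminescence assay, with percent cytotoxicity normalised to vehicle and positive control wells.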
# [2] = tested on: Mycobacterium tuberculosis CDC1551 (intracellular, in murine BMDM); assay: area under intracellular growth-inhibition dose-response curve (AUC (% inhibition x dose, relative)); higher = more potent; settings: duration: 6 days; dose range: 0.13-80 uM, 8 points
# Outline: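 Luciferase-expressing M. tuberculosis CDC1551 was used at multiplicity of infection 1 for 1 h to infect primary murine bone marrow-derived macrophages in 384-well opaque plates, 24 h after seeding. Treatment followed for 6 days with an 8-dose, 2.5-fold series at final concentrations of 80–0.13 μM. GraphPad Prism was used to calculate the area under the growth-inhibition dose–response curve from Bright-Glo luciferin readings normalised to a reference drug control and the lowest-concentration wells.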
structure (smiles),measurement,setting,value
O=C(N/N=C\c1ccc([N+](=O)[O-])o1)C1COc2ccccc2O1 (centres undefined),area under cytotoxicity dose-response curve,[1],10.7
same,area under intracellular growth-inhibition dose-response curve,[2],203
C[C@H]1c2cccc(O)c2C(=O)C2C(=O)C3(O)C(=O)C(C(N)=O)C(=O)[C@@H](N(C)C)[C@@H]3[C@@H](O)[C@@H]21.Cl (some centres undefined),area under cytotoxicity dose-response curve,[1],33.4
same,area under intracellular growth-inhibition dose-response curve,[2],259
FC(F)Oc1ccc(NC(=S)Nc2ccc3c[nH]nc3c2)cc1,area under cytotoxicity dose-response curve,[1],< 0
same,area under intracellular growth-inhibition dose-response curve,[2],219
CC1CCN(c2ccc(NC(=O)c3ccc([N+](=O)[O-])o3)cc2)CC1.Cl,area under cytotoxicity dose-response curve,[1],90.4
same,area under intracellular growth-inhibition dose-response curve,[2],56.1
COc1c(N2CCN(C(=S)Nc3ccccc3F)C(C)C2)c(F)cc2c(=O)c(C(=O)O)cn(C3CC3)c12 (centres undefined),area under cytotoxicity dose-response curve,[1],< 0
same,area under intracellular growth-inhibition dose-response curve,[2],275
NC(=S)N/N=C/c1ccc(-c2ccc(SC(F)F)cc2)o1,area under cytotoxicity dose-response curve,[1],46.9
same,area under intracellular growth-inhibition dose-response curve,[2],271
CCCOc1ccccc1OCC(=O)N1CCN(S(=O)(=O)c2ccc(Cl)cc2)CC1,area under cytotoxicity dose-response curve,[1],126
same,area under intracellular growth-inhibition dose-response curve,[2],48.8
C/C(CC(=O)Nc1ccccc1C#N)=N\NC(=O)c1ccncc1,area under cytotoxicity dose-response curve,[1],98.9
same,area under intracellular growth-inhibition dose-response curve,[2],229
CCOC(=O)c1c(-c2ccccc2)nc2ccc(C)cn12,area under cytotoxicity dose-response curve,[1],58.7
same,area under intracellular growth-inhibition dose-response curve,[2],203
O=C(CCCOc1ccc(Cl)cc1Cl)Nc1ccccc1C(=O)O,area under cytotoxicity dose-response curve,[1],0.729
same,area under intracellular growth-inhibition dose-response curve,[2],83.7
C=CCNC(=S)NNC(=O)CC12CC3CC(CC(C3)C1)C2,area under cytotoxicity dose-response curve,[1],8.72
same,area under intracellular growth-inhibition dose-response curve,[2],222
Cc1nnc(NS(=O)(=O)c2ccc(N)cc2)s1,area under cytotoxicity dose-response curve,[1],29.3
same,area under intracellular growth-inhibition dose-response curve,[2],121
COCCNc1c(-c2ccc(OC)cc2)nc2ccc(Cl)cn12,area under cytotoxicity dose-response curve,[1],32.9
same,area under intracellular growth-inhibition dose-response curve,[2],87.8
Cc1ccc(Cc2c(C)c(C#N)c3nc4ccccc4n3c2O)cc1,area under cytotoxicity dose-response curve,[1],75.7
same,area under intracellular growth-inhibition dose-response curve,[2],240
COc1cc(/C=C/C(=O)c2ccc([N+](=O)[O-])o2)ccc1O,area under cytotoxicity dose-response curve,[1],107
same,area under intracellular growth-inhibition dose-response curve,[2],76
CC1CCCC(C)N1C(=O)COC(=O)c1cccnc1Cl (centres undefined),area under cytotoxicity dose-response curve,[1],9.13
same,area under intracellular growth-inhibition dose-response curve,[2],33.7
CCCCCCNC(=O)c1ccc(Br)o1,area under cytotoxicity dose-response curve,[1],< 0
same,area under intracellular growth-inhibition dose-response curve,[2],225
c1ccc2c(c1)-c1cccc3cncc-2c13,area under cytotoxicity dose-response curve,[1],36.8
same,area under intracellular growth-inhibition dose-response curve,[2],200
O=C(NCc1ccco1)c1cc([N+](=O)[O-])cc([N+](=O)[O-])c1,area under cytotoxicity dose-response curve,[1],29.1
same,area under intracellular growth-inhibition dose-response curve,[2],160
NC(=S)N/N=C/c1ccc(-c2ccc(Cl)c(Cl)c2)o1,area under cytotoxicity dose-response curve,[1],107
same,area under intracellular growth-inhibition dose-response curve,[2],219
COc1cc(OC)c(/C=N/NC(=O)c2ccncc2)cc1Br,area under cytotoxicity dose-response curve,[1],98
same,area under intracellular growth-inhibition dose-response curve,[2],249
Cc1cc(Br)cnc1NC(=S)Nc1ccc(F)cc1F,area under cytotoxicity dose-response curve,[1],33.7
same,area under intracellular growth-inhibition dose-response curve,[2],247
CCN1/C(=C/C(C)=C/c2sc3ccccc3[n+]2CC)Sc2ccccc21.[I-],area under cytotoxicity dose-response curve,[1],94.9
same,area under intracellular growth-inhibition dose-response curve,[2],138
NC(=S)c1cn(C2OC(CO)C(O)C2O)c2ncnc(N)c12 (centres undefined),area under cytotoxicity dose-response curve,[1],36.6
same,area under intracellular growth-inhibition dose-response curve,[2],70.2
O=[N+]([O-])c1ccc(N2CCCCC2)s1,area under cytotoxicity dose-response curve,[1],14.5
same,area under intracellular growth-inhibition dose-response curve,[2],165
Nc1c2c(nc3sc4c(c13)CCCCC4)CCCC2,area under cytotoxicity dose-response curve,[1],14.6
same,area under intracellular growth-inhibition dose-response curve,[2],171
O=C(N/N=C/c1cccc2ccccc12)c1ccncc1,area under cytotoxicity dose-response curve,[1],67.8
same,area under intracellular growth-inhibition dose-response curve,[2],262
Cc1nc(N)nc(N)c1/C=C/C(C)(C)c1ccc(Cl)cc1.Cl,area under cytotoxicity dose-response curve,[1],5.71
same,area under intracellular growth-inhibition dose-response curve,[2],230
C/C(CC(=O)Nc1ccc(C)c(Cl)c1)=N\NC(=O)c1ccncc1,area under cytotoxicity dose-response curve,[1],< 0
same,area under intracellular growth-inhibition dose-response curve,[2],272
N#Cc1ccc(NCC(=O)N2CCN(S(=O)(=O)c3ccccc3)CC2)cc1,area under cytotoxicity dose-response curve,[1],< 0
same,area under intracellular growth-inhibition dose-response curve,[2],56.7
Cc1ccc(-c2nn(-c3ccccc3)cc2/C=N/NC(=O)c2ccncc2)o1,area under cytotoxicity dose-response curve,[1],48.7
same,area under intracellular growth-inhibition dose-response curve,[2],261
CC1CC(C)CN(C(=O)c2ccc(CNc3c(N4CCCC4)c(=O)c3=O)cc2)C1 (centres undefined),area under cytotoxicity dose-response curve,[1],166
same,area under intracellular growth-inhibition dose-response curve,[2],179
N#CCCn1cc(/C=N/NC(=O)c2ccncc2)c(-c2ccccc2)n1,area under cytotoxicity dose-response curve,[1],< 0
same,area under intracellular growth-inhibition dose-response curve,[2],247
Cc1ccc(OCCOC(=O)c2c(-c3ccccc3)noc2C)cc1,area under cytotoxicity dose-response curve,[1],< 0
same,area under intracellular growth-inhibition dose-response curve,[2],200
CCOC(=O)c1cnc(-n2nc(C)cc2C)nc1NCCc1ccccc1,area under cytotoxicity dose-response curve,[1],21.7
same,area under intracellular growth-inhibition dose-response curve,[2],247
COc1ccc(/C=N/Nc2nc(-c3ccc(C)cc3)c(NC(C)=O)s2)cc1,area under cytotoxicity dose-response curve,[1],< 0
same,area under intracellular growth-inhibition dose-response curve,[2],272
Cc1cc(C)c2cc(C(=O)Nc3ccc(C)c(F)c3)[nH]c2c1,area under cytotoxicity dose-response curve,[1],< 0
same,area under intracellular growth-inhibition dose-response curve,[2],214
COc1c(N2CCN(C(=S)NC3CC4CCC3C4)C(C)C2)c(F)cc2c(=O)c(C(=O)O)cn(C3CC3)c12 (centres undefined),area under cytotoxicity dose-response curve,[1],8.11
same,area under intracellular growth-inhibition dose-response curve,[2],239
CCc1ccc(C(=O)NC2CCCCC2)s1,area under cytotoxicity dose-response curve,[1],42.5
same,area under intracellular growth-inhibition dose-response curve,[2],239
CCC(=O)NC(=S)Nc1ccc(NC(=O)c2ccc(OC)cc2)cc1,area under cytotoxicity dose-response curve,[1],< 0
same,area under intracellular growth-inhibition dose-response curve,[2],266
C/C(=C\c1ccccc1)C(=O)NCc1ccco1,area under cytotoxicity dose-response curve,[1],134
same,area under intracellular growth-inhibition dose-response curve,[2],111
O=C(COC(=O)Cc1ccc(Cl)cc1)NCc1cccs1,area under cytotoxicity dose-response curve,[1],18.4
same,area under intracellular growth-inhibition dose-response curve,[2],37.1
O=C(NCc1ccco1)c1cc2c(s1)CCCCC2,area under cytotoxicity dose-response curve,[1],42.6
same,area under intracellular growth-inhibition dose-response curve,[2],255
NC(=S)N/N=C/c1ccc(OC(=O)c2cccnc2)cc1,area under cytotoxicity dose-response curve,[1],48
same,area under intracellular growth-inhibition dose-response curve,[2],262
c1ccc(Cc2nnc(-c3ccccc3)o2)cc1,area under cytotoxicity dose-response curve,[1],39.3
same,area under intracellular growth-inhibition dose-response curve,[2],264
CCN(CC)c1ccc(NC(=S)Nc2ccc(F)cc2)cc1,area under cytotoxicity dose-response curve,[1],90.6
same,area under intracellular growth-inhibition dose-response curve,[2],106
CN(C)[C@@H]1C(=O)C(C(N)=O)=C(O)[C@@]2(O)C(=O)C3=C(O)c4c(O)ccc(Cl)c4[C@@H](O)[C@H]3C[C@@H]12.Cl,area under cytotoxicity dose-response curve,[1],< 0
same,area under intracellular growth-inhibition dose-response curve,[2],253
O=C(NCc1ccccc1F)c1ccc2c(c1)OCO2,area under cytotoxicity dose-response curve,[1],87.2
same,area under intracellular growth-inhibition dose-response curve,[2],79.5
Cc1cc(C(=O)NCc2cccs2)cs1,area under cytotoxicity dose-response curve,[1],9.86
same,area under intracellular growth-inhibition dose-response curve,[2],25.9
Cc1nc(SCc2ccccc2)c2oc3ccccc3c2n1,area under cytotoxicity dose-response curve,[1],34.5
same,area under intracellular growth-inhibition dose-response curve,[2],143
CS(=O)(=O)N1CCN(C(=O)CCC2CCCC2)CC1,area under cytotoxicity dose-response curve,[1],43.1
same,area under intracellular growth-inhibition dose-response curve,[2],159
COc1ccc(C(=O)C(C)OC(=O)CNC(=O)c2ccco2)cc1 (centres undefined),area under cytotoxicity dose-response curve,[1],< 0
same,area under intracellular growth-inhibition dose-response curve,[2],166
COc1ccc(-c2[nH]ncc2/C=N/NC(=O)c2ccncc2)c(OC)c1,area under cytotoxicity dose-response curve,[1],< 0
same,area under intracellular growth-inhibition dose-response curve,[2],218
COc1ccc(CCNC(=S)Nc2ccccc2)cc1,area under cytotoxicity dose-response curve,[1],78.8
same,area under intracellular growth-inhibition dose-response curve,[2],134
COc1cccc2c1C(=O)c1c(O)c3c(c(O)c1C2=O)C[C@](O)(C(C)=O)C[C@H]3O[C@@H]1C[C@@H](N)[C@@H](O)[C@@H](C)O1.Cl,area under cytotoxicity dose-response curve,[1],172
same,area under intracellular growth-inhibition dose-response curve,[2],44.8
O=C(NC1CCCCCCC1)c1ccc(F)cc1,area under cytotoxicity dose-response curve,[1],16.9
same,area under intracellular growth-inhibition dose-response curve,[2],180
CCOc1ccc(-c2cc(C)[n+](CCc3ccc(OC)c(OC)c3)c(-c3ccc(OCC)cc3)c2)cc1.[O-][Cl+3]([O-])([O-])[O-],area under cytotoxicity dose-response curve,[1],102
same,area under intracellular growth-inhibition dose-response curve,[2],60.7
O=C(NCCc1c[nH]c2ccccc12)c1cc([N+](=O)[O-])cc([N+](=O)[O-])c1,area under cytotoxicity dose-response curve,[1],< 0
same,area under intracellular growth-inhibition dose-response curve,[2],257
O=C1CN(C(=O)COC(=O)c2ccc(Br)o2)c2ccccc2N1,area under cytotoxicity dose-response curve,[1],23.5
same,area under intracellular growth-inhibition dose-response curve,[2],58.2
Cc1ccc(NC(=O)c2cc(S(=O)(=O)N3CCCCC3)ccc2N2CCOCC2)cc1S(=O)(=O)N(C)C,area under cytotoxicity dose-response curve,[1],58.9
same,area under intracellular growth-inhibition dose-response curve,[2],< 0
O=C(NCc1ccccc1)C1COc2ccccc2O1 (centres undefined),area under cytotoxicity dose-response curve,[1],14.8
same,area under intracellular growth-inhibition dose-response curve,[2],193
O=C(Nc1ccc(N2CCN(C(=O)c3ccccc3)CC2)cc1)c1ccc([N+](=O)[O-])o1,area under cytotoxicity dose-response curve,[1],24.1
same,area under intracellular growth-inhibition dose-response curve,[2],127
